Experimental data reported in patent publication US11365410B2, “Production and monitoring of metabolites in cells” (President and Fellows of Harvard College, priority 2015, dated 2022).

What was measured:
[1] = tested on: glucarate biosensor cdaR in BL21 cells; assay: Real-time glucarate monitoring from pathway intermediates with cdaR biosensor; assay type: cell-based, E. coli; details: strain with biosensor and biosynthesis pathway
Protocol: In representative examples, identical production conditions (genetics, media composition) were maintained but the exogenously supplemented precursor molecules were varied. […] The end-point fluorescence achieved by the addition of myo-inositol is just 20% that of glucuronate addition.
Glucarate production monitoring was carried out in BL21 cells doubly transformed with pJKR-H-cdaR and pJKR-GA-EXP. BL21 transformed with pJKR-H-cdaR alone was used as a control. Overnight cultures back-diluted 1:100 into Davis media supplemented with 5 g/L glucose. After four hours incubating at 200 RPM and 37° C., 150 μl of the log-phase cells were transferred to 96-well plates and exposed to 1 mM IPTG with the pathway intermediates described. […] End-point measurements were taken after eight hours. Glucarate production for titer measurement was carried out in BL21 transformed with pJKR-GA-EXP. An overnight culture was inoculated 1:100 into 1 mL of LB supplemented with 1 mM IPTG and the specified concentration of pathway intermediate. Production took place in 96-well blocks at 900 RPM and 37° C. for eight hours before supernatants were isolated and 0.2 μm filtered for LC/MS. All production runs were setup in triplicate. Error bars represent the 95% confidence interval derived from the standard error of the mean.

[2] = biological target: T1, TetR, regulator sequence SEQ ID NO: 13 (Escherichia coli, UniProt P04483); assay: cell-based; assay type: cell-based; details: anhydrotetracycline; for Fold Induction: 15 h; for EC50: lumped half-maximal parameter from Hill fit
T1 construct: expressed in transfected cells; host or cells: E. coli DH5alpha transformed with pJKR-H (high copy) or pJKR-L (low copy) plasmid
Excerpt: Plasmids were constructed using Gibson isothermal assembly methods (see Gibson, D. G., Young, L., Chuang, R. Y., Venter, J. C., Hutchison, C. A., 3rd and Smith, H. O. (2009) Enzymatic assembly of DNA molecules up to several hundred kilobases. Nat Methods, 6, 343-345 incorporated herein by reference in its entirety) and transformed into DH5α electrocompetent cells (New England Biolabs, Ipswich Mass.). All standard induction plasmids contained the rrnB strong terminator (see Orosz, A., Boros, I. and Venetianer, P. (1991) Analysis of the complex transcription termination region of the Escherichia coli rrnB gene. European journal of biochemistry/FEBS, 201, 653-659 incorporated herein by reference in its entirety) followed by the inducible promoter and the strong g10 RBS (see Olins, P. O., Devine, C. S., Rangwala, S. H. and Kavka, K. S. (1988) The T7 phage gene 10 leader RNA, a ribosome-binding site that dramatically enhances the expression of foreign genes in Escherichia coli. Gene, 73, 227-235 incorporated herein by reference in its entirety) ‘[…],’ (SEQ ID NO:1) driving the expression of sfGFP (see Pedelacq, J. D., Cabantous, S., Tran, T., Terwilliger, T. C. and Waldo, G. S. (2006) Engineering and characterization of a superfolder green fluorescent protein. […] GFP was followed by a transcriptional terminator prefixing the proB promoter (see Davis, J. H., Rubin, A. J. and Sauer, R. T. (2011) Design, construction and characterization of a set of insulated bacterial promoters. Nucleic acids research, 39, 1131-1141 incorporated herein by reference in its entirety) and strong RBS ‘[…],’ (SEQ ID NO:2) which facilitated expression of the transcriptional regulator. Each inducible system was implemented on high and low copy plasmids. High copy pJKR-H plasmids were constructed with the pUC origin and beta lactamase antibiotic resistance marker derived from pUC19 (New England Biolabs, Ipswich Mass.). Low copy pJKR-L plasmids were constructed in the same way, except that the pUC origin was replaced by the SC101 origin (including repA) from pSC101 obtained from American Type Culture Collection (ATCC #37032). […] The plasmids MphR-p15a-SPEC-mCherry and AcuR-colA-KAN-CFP were designed for compatible maintenance with pJKR-H-CdaR. In both these plasmids the antibiotic resistance gene and origin of replication were replaced with p15a-aadA and colA-kanR. Each enzyme was cloned downstream of the constitutive promoter P2 (see Mutalik, V. K., Guimaraes, J. C., Cambray, G., Lam, C., Christoffersen, M. J., Mai, Q. A., Tran, A. B., Paull, M., Keasling, J. D., Arkin, A. P. et al. (2013) Precise and reliable gene expression via standard transcription and translation initiation elements. Nat Methods, 10, 354-360 hereby incorporated by reference in its entirety) and g10 RBS to create pJKR-MIOX variants. These expression plasmids used the colA origin of replication and kanamycin resistance gene for maintenance. Sequences and plasmids are available on Addgene (plasmid numbers 62557-62570).
DH5α cells transformed with pJKR plasmids and maintained with carbenicillin were used in the induction assays. For each induction evaluation experiment, the cells were grown overnight to saturation before being diluted 1:100 into fresh LB media and incubated at 200 RPM and 37° C. After four hours, 150 μl of the log-phase cells were transferred to 96-well plates and stock inducer was added to achieve the desired range of induction concentrations. Three separate wells were inoculated and independently supplemented with the appropriate amount of inducing chemical for each level of induction. Measurements were made on the same Biotek (Winooksi, Vt.) HT plate reader using the same settings: excitation 485/20, emission 528/20, 37° C. and fast shaking. Fluorescence and absorbance were measured every 10 minutes for 15 hours. Fluorescence was measured in arbitrary units (AFU) while optical density was determined by absorbance (OD). […]

[3] = biological target: T2, AraC, regulator sequence SEQ ID NO: 10 (Escherichia coli, UniProt P0A9E0); assay: AraC biosensor induction (sfGFP reporter, Hill fit); assay type: cell-based, E. coli; details: arabinose
T2 construct: expressed in transfected cells; host or cells: E. coli DH5alpha transformed with pJKR-H (high copy) or pJKR-L (low copy) plasmid
Excerpt: (§1) Plasmids were constructed using Gibson isothermal assembly methods (see Gibson, D. G., Young, L., Chuang, R. Y., Venter, J. C., Hutchison, C. A., 3rd and Smith, H. O. (2009) Enzymatic assembly of DNA molecules up to several hundred kilobases. Nat Methods, 6, 343-345 incorporated herein by reference in its entirety) and transformed into DH5α electrocompetent cells (New England Biolabs, Ipswich Mass.). […] Each inducible system was implemented on high and low copy plasmids. High copy pJKR-H plasmids were constructed with the pUC origin and beta lactamase antibiotic resistance marker derived from pUC19 (New England Biolabs, Ipswich Mass.). Low copy pJKR-L plasmids were constructed in the same way, except that the pUC origin was replaced by the SC101 origin (including repA) from pSC101 obtained from American Type Culture Collection (ATCC #37032). […] In both these plasmids the antibiotic resistance gene and origin of replication were replaced with p15a-aadA and colA-kanR. Each enzyme was cloned downstream of the constitutive promoter P2 (see Mutalik, V. K., Guimaraes, J. C., Cambray, G., Lam, C., Christoffersen, M. J., Mai, Q. A., Tran, A. B., Paull, M., Keasling, J. D., Arkin, A. P. et al. (2013) Precise and reliable gene expression via standard transcription and translation initiation elements. Nat Methods, 10, 354-360 hereby incorporated by reference in its entirety) and g10 RBS to create pJKR-MIOX variants. These expression plasmids used the colA origin of replication and kanamycin resistance gene for maintenance. Sequences and plasmids are available on Addgene (plasmid numbers 62557-62570).
(§2) DH5α cells transformed with pJKR plasmids and maintained with carbenicillin were used in the induction assays. For each induction evaluation experiment, the cells were grown overnight to saturation before being diluted 1:100 into fresh LB media and incubated at 200 RPM and 37° C. […] Measurements were made on the same Biotek (Winooksi, Vt.) HT plate reader using the same settings: excitation 485/20, emission 528/20, 37° C. and fast shaking. Fluorescence and absorbance were measured every 10 minutes for 15 hours. Fluorescence was measured in arbitrary units (AFU) while optical density was determined by absorbance (OD). Normalized fluorescence was determined by dividing fluorescence by optical density for a given measurement. […]
(§3) The ratio of fluorescence to absorbance at 600 nm was used in order to compensate for changes in cell density over time and between experiments (AFU/OD). […] This transfer function is plotted on a log-log scale in FIG. 1A and FIG. 1B to capture the wide range of inducer concentrations and resulting fluorescence values. […]

[4] = biological target: MphR (E. coli), regulator sequence SEQ ID NO: 12 (Escherichia coli, UniProt Q9EVJ6); assay: MphR biosensor induction (sfGFP reporter, Hill fit); assay type: cell-based; details: erythromycin
Excerpt: as §1, §2, §3

E. coli DH5α cells = assay: Toxicity of inducer chemicals (growth)
Protocol: (§4) Growth rate was measured for each combination of chemical and concentration during the exponential phase of growth. Rates were normalized to the growth rate of cells without any added chemical and plotted as bar height. Concentration of each inducer is indicated in the table, corresponding to the bar chart by order and color. […] Inducer concentrations mirror the concentrations used in the induction experiments.
(§5) 150 μl of cells were transferred into 96-well plates and the assayed chemical was immediately added in triplicate before further incubation at 600 RPM and 37° C.
(§6) Toxicity of the inducer chemicals was measured to help guide the choice of inducer concentration for biosensor applications. In applications where maximum protein production is the goal, toxicity will be less of a consideration. In contrast, sub-toxic induction is important for complex circuits that require the cell to maintain a healthy cell state.

[5] = biological target: T3, TtgR (Pseudomonas putida), regulator sequence SEQ ID NO: 14 (Pseudomonas putida, UniProt Q9AIU0); assay: TtgR biosensor induction (sfGFP reporter, Hill fit); assay type: cell-based; details: naringenin
T3 construct: expressed in transfected cells; host or cells: E. coli DH5alpha transformed with pJKR-H (high copy) or pJKR-L (low copy) plasmid
Excerpt: as §1, §2, §3

DH5α cells = assay: Toxicity of inducer chemicals and solvents (growth); details: for effect on growth: arabinose high concentrations, glucarate highest concentration, ethanol low levels; for concentration at which toxicity was observed: E. coli without resistance gene
Protocol: as §4, §5, §6

TtgR biosensor = TtgR biosensor induction with phenol and related compounds; assay type: cell-based, E. coli; details: 0.1% phenol, 0.1% catechol, up to 0.4% benzene; fluorescence after 90 minutes
Protocol: All experiments were carried out in triplicate.
DH5α cells transformed with pJKR plasmids and maintained with carbenicillin were used in the induction assays. For each induction evaluation experiment, the cells were grown overnight to saturation before being diluted 1:100 into fresh LB media and incubated at 200 RPM and 37° C. After four hours, 150 μl of the log-phase cells were transferred to 96-well plates and stock inducer was added to achieve the desired range of induction concentrations. Three separate wells were inoculated and independently supplemented with the appropriate amount of inducing chemical for each level of induction. Measurements were made on the same Biotek (Winooksi, Vt.) HT plate reader using the same settings: excitation 485/20, emission 528/20, 37° C. and fast shaking. Fluorescence and absorbance were measured every 10 minutes for 15 hours. Fluorescence was measured in arbitrary units (AFU) while optical density was determined by absorbance (OD). Normalized fluorescence was determined by dividing fluorescence by optical density for a given measurement. Five independent wells containing control strains, transformed with pUC19, were included to provide a measurement of background autofluorescence.

## O=C(O)[C@H]1OC(O)[C@H](O)[C@@H](O)[C@@H]1O (mixture of isomers) [glucuronate]
[1]; eight hours
  end-point fluorescence relative to that of glucarate: 80%

## Cc1c2c(c(O)c3c(O)cccc13)C(=O)[C@]1(O)C(=O)C(C(N)=O)=C(O)[C@@H](N(C)C)[C@@H]1C2 [Anhydrotetracycline, anhydrotetracycline]
[2]; high copy
  Hill Coefficient: 4.2 ± 0.1
  Max Expression Velocity: 1760 ± 10 s⁻¹
  Fold Induction: 63 ± 3 fold
  EC50: 81 ± 1 nM
[2]; low copy
  Hill Coefficient: 3.1 ± 0.3
  Max Expression Velocity: 116 ± 2 s⁻¹
  Fold Induction: >50 fold
  EC50: 54 ± 2 nM

## OC1OC[C@H](O)[C@H](O)[C@H]1O (stereo partly shown) [Arabinose, arabinose]
[3]; high copy
  Hill Coefficient: 1.3 ± 0.1
  Max Expression Velocity: 3150 ± 60 s⁻¹
[3]; low copy
  Hill Coefficient: 1.3 ± 0.2
  Max Expression Velocity: 1260 ± 50 s⁻¹

## CC[C@H]1OC(=O)[C@H](C)[C@@H](O[C@H]2C[C@@](C)(OC)[C@@H](O)[C@H](C)O2)[C@H](C)[C@@H](O[C@@H]2O[C@H](C)C[C@H](N(C)C)[C@H]2O)[C@](C)(O)C[C@@H](C)C(=O)[C@H](C)[C@@H](O)[C@]1(C)O [Erythromycin, erythromycin]
[4]; high copy
  Hill Coefficient: 1.6 ± 0
  Max Expression Velocity: 2070 ± 20 s⁻¹
[4]; low copy
  Hill Coefficient: 1.6 ± 0.1
  Max Expression Velocity: 66 ± 1 s⁻¹
E. coli DH5α cells; 1400 μM and 450 μM erythromycin, low-copy MphR
  Toxicity in induction experiment: high toxicity
E. coli DH5α cells; with eryR, erythromycin up to 1.4 mM
  Toxicity: only slight toxicity

## O=C1C[C@@H](c2ccc(O)cc2)Oc2cc(O)cc(O)c21 [Naringenin, naringenin]
[5]; high copy
  Hill Coefficient: 3.8 ± 0.6
  Max Expression Velocity: 180 ± 6 s⁻¹
[5]; low copy
  Hill Coefficient: 2.3 ± 0.4
  Max Expression Velocity: 25 ± 1 s⁻¹

## Cc1c2c(c(O)c3c(O)cccc13)C(=O)[C@]1(O)C(=O)C(C(N)=O)=C(O)[C@@H](N(C)C)[C@@H]1C2 [anhydrotetracycline]
DH5α cells; E. coli, defect likely due to solvent ethanol
  concentration at which growth defect was observed: 0.43 µM

## O=C[C@@H](O)[C@H](O)[C@H](O)CO [arabinose]
DH5α cells
  effect on growth: higher growth rates

## c1ccccc1 [benzene]
TtgR biosensor
  fluorescent response of TtgR biosensor: background levels of fluorescence

## CC[C@H]1OC(=O)[C@H](C)[C@@H](O[C@H]2C[C@@](C)(OC)[C@@H](O)[C@H](C)O2)[C@H](C)[C@@H](O[C@@H]2O[C@H](C)C[C@H](N(C)C)[C@H]2O)[C@](C)(O)C[C@@H](C)C(=O)[C@H](C)[C@@H](O)[C@]1(C)O [erythromycin]
DH5α cells
  concentration at which toxicity was observed: ≥ 50 µM
DH5α cells; with expression of the erythromycin resistance gene (eryR)
  concentration up to which only slight toxicity was observed: up to 1.4 mM

## CCO [ethanol]
DH5α cells
  effect on growth: more modest growth benefits

## O=C(O)[C@@H](O)[C@@H](O)[C@H](O)[C@@H](O)C(=O)O [glucarate]
DH5α cells
  effect on growth: more modest growth benefits

## O[C@H]1[C@H](O)[C@@H](O)[C@H](O)[C@@H](O)[C@H]1O [myo-inositol]
[1]
  lag of fluorescence response behind glucuronate: 60 min
[1]; eight hours
  end-point fluorescence relative to that of glucuronate addition: 20%

## O=C1C[C@@H](c2ccc(O)cc2)Oc2cc(O)cc(O)c21 [naringenin]
DH5α cells
  concentration at which toxicity was observed: ≥ 330 µM

## Oc1ccccc1 [phenol]
TtgR biosensor
  fluorescent response of TtgR biosensor: activated the sensor
